Tests used:
Format in all cases: cell-based
[1] = tested on: human embryonic lung fibroblast IMR-90; assay: Anti-fibrosis activity test: inhibition of proliferation of human embryonic lung fibroblast IMR-90 (CCK-8)
Experimental: (§1) BHK-21 cells in exponential growth phase were selected. After the fusion growth reached 85-95%, normal passage method was utilized to digest and collect the cells, followed by cell counting and adjusting the cell density to 2×10^4 cells/mL. The cells were seeded into 96-well plates, 100 μL/well, and were incubated under the condition of 5% CO2 at 37° C.
(§2) The supernatant was removed after the cells had adhered to the wall for 24 hours. The culture solution containing the prepared compounds at different concentrations were added to the wells, 100 μL/well, each concentration in triplicate. The cells were subcultured for 48 hours after administration. Commercially available pirfenidone was employed as the positive control.
(§3) 10 μL of CCK-8 solution ( 1/10 of the volume of the culture solution) was added to each well 48 hours after the administration, and incubated for 2 hours. The absorbance (A) of each well was determined by a microplate reader at 450 nm wavelength. The inhibition rate against cell proliferation for each compound was calculated based on A, wherein inhibition rate against cell proliferation (inhibition ratio, IR)=(1−value of experimental group (Ai)/value of blank control group (Ao))×100% and the IC50 value of each compound was calculated by the data processing software.
(§4) Using the same protocol for the cell experiments, the inhibitory activity of the test compounds against the proliferation of human lung fibroblasts HFL1, human hepatic stellate cells LX-2, human fibrosarcoma cells HT-1080, human dermal fibroblasts CCC-ESF-1, human embryonic lung fibroblast IMR-90, cardiac fibroblast RAT-iCell-C002 was assayed.

[2] = tested on: cardiac fibroblast RAT-iCell-C002; assay: Anti-fibrosis activity test: inhibition of proliferation of cardiac fibroblast RAT-iCell-C002 (CCK-8); settings: Cardiac fibroblast, 48 h
Experimental: as §1, §2, §3, §4

[3] = tested on: human hepatic stellate cells LX-2; assay: Anti-fibrosis activity test: inhibition of proliferation of human hepatic stellate cells LX-2 (CCK-8)
Experimental: as §1, §2, §3, §4

[4] = tested on: human dermal fibroblasts CCC-ESF-1; assay: Anti-fibrosis activity test: inhibition of proliferation of human dermal fibroblasts CCC-ESF-1 (CCK-8)
Experimental: as §1, §2, §3, §4

BHK-21 cells = assay: Anti-fibrosis activity test: inhibition of BHK-21 cell proliferation (CCK-8)
Experimental: as §1, §2, §3

[5] = tested on: human lung fibroblasts HFL1; assay: Anti-fibrosis activity test: inhibition of proliferation of human lung fibroblasts HFL1 (CCK-8)
Experimental: as §1, §2, §3, §4

[6] = tested on: human fibrosarcoma cells HT-1080; assay: Anti-fibrosis activity test: inhibition of proliferation of human fibrosarcoma cells HT-1080 (CCK-8)
Experimental: as §1, §2, §3, §4

[7] = human embryonic lung fibroblast IMR-90, CCK-8, 48 hours
[8] = cardiac fibroblast RAT-iCell-C002, CCK-8, 48 hours
[9] = Homo sapiens, 48 h, human hepatic stellate cells LX-2, CCK-8, 48 hours
[10] = Fibroblast, human dermal fibroblasts CCC-ESF-1, CCK-8, 48 hours
[11] = Mesocricetus auratus, BHK-21, 48 h, CCK-8, 48 hours after administration
[12] = Homo sapiens, HFL1, 48 h, human lung fibroblasts HFL1, CCK-8, 48 hours
[13] = Homo sapiens, HT-1080, 48 h, human fibrosarcoma cells HT-1080, CCK-8, 48 hours
[14] = human dermal fibroblasts CCC-ESF-1, CCK-8, 48 hours
[15] = CCK-8, 48 hours after administration
[16] = human lung fibroblasts HFL1, CCK-8, 48 hours

Row | IC50 [6, 13] [mM] | SMILES | IC50 [1, 7] [mM] | IC50 [2, 8] [mM] | IC50 [3, 9] [mM] | IC50 [4, 10] [mM] | IC50 (BHK-21 cells; [11]) [mM] | IC50 [5, 12] [mM] | other results
1 | 0.05 to 5 | O=C1c2c(n(Cc3ccc(C(F)(F)F)cc3)c3cc(N4CCNCC4)c(F)cc3c2=O)-c2cccn21 [Compound 636a, 7-Fluoro-6-(piperazin-1-yl)-4-(4-(trifluoromethyl)benzyl)-9H-pyrrolizino[1,2-b]quinoline-9,10(4H)-dione] | 0.05 to 5 | 0.05 to 5 | 0.05 to 5 | < 0.05 | 0.05 to 5 | 0.05 to 5 | –
2 | 0.05 to 5 | N#Cc1ccccc1-c1ccc(COc2c3c(nc4cc(N5CCNCC5)c(F)cc24)-c2cccn2C3=O)cc1 [Compound 638b, 4′-(((7-fluoro-10-oxo-6-(piperazin-1-yl)-10H-pyrrolizino[1,2-b]quinolin-9-yl)oxy)methyl)-[1,1′-biphenyl]-2-carbonitrile] | 0.05 to 5 | 0.05 to 5 | 0.05 to 5 | 0.05 to 5 | 0.05 to 5 | 0.05 to 5 | –
3 | 0.05 to 5 | O=C1c2c(nc3cc(N4CCNCC4)c(F)cc3c2OCc2ccc(C(F)(F)F)cc2)-c2cccn21 [Compound 636b, 7-fluoro-6-(piperazin-1-yl)-9-((4-(trifluoromethyl)benzyl)oxy)-10H-pyrrolizino[1,2-b]quinolin-10-one] | 0.05 to 5 | 0.05 to 5 | 0.05 to 5 | 0.05 to 5 | 0.05 to 5 | 0.05 to 5 | –
4 | 0.05 to 5 | O=C1c2c(nc3cc(N4CCNCC4)cc(F)c3c2OCc2ccc(Cl)cc2)-c2cccn21 [Compound 647b, 9-((4-chlorobenzyl)oxy)-8-fluoro-6-(piperazin-1-yl)-10H-pyrrolizino[1,2-b]quinolin-10-one] | 0.05 to 5 | 0.05 to 5 | 0.05 to 5 | 0.05 to 5 | 0.05 to 5 | 0.05 to 5 | –
5 | – | Cc1ccc2n1C(=O)c1c-2nc2ccccc2c1O [Compound 800b, 9-hydroxy-1-methyl-10H-pyrrolizino[1,2-b]quinolin-10-one] | – | – | – | – | – | – | IC50 ([1]; Homo sapiens, IMR-90 cells, 48 h, CCK-8): 0.05 to 5 mM; IC50 ([2]; RAT-iCell-C002 cells, CCK-8): 0.05 to 5 mM; IC50 ([3]; Homo sapiens, LX-2, 48 h, LX-2 cells, 48 h, CCK-8): 0.05 to 5 mM; IC50 ([4]; Homo sapiens, Fibroblast, CCC-ESF-1 cells, 48 h, CCK-8): 0.05 to 5 mM; IC50 (BHK-21 cells; Mesocricetus auratus, BHK-21, 48 h, 48 h, CCK-8): 0.05 to 5 mM; IC50 ([5]; Homo sapiens, HFL1, 48 h, HFL1 cells, 48 h, CCK-8): 0.05 to 5 mM; IC50 ([6]; Homo sapiens, HT-1080, 48 h, HT-1080 cells, 48 h, CCK-8): 0.05 to 5 mM
6 | 0.05 to 5 | O=C1c2c(n(Cc3ccccc3Cl)c3cc(Cl)ccc3c2=O)-c2cccn21 [Compound 510a, 6-Chloro-4-(2-chlorobenzyl)-9H-pyrrolizino[1,2-b]quinoline-9,10(4H)-dione] | 0.05 to 5 | 0.05 to 5 | 0.05 to 5 | 0.05 to 5 | < 0.05 | 0.05 to 5 | –
7 | 0.05 to 5 | O=C1c2c(n(Cc3ccc(F)cc3)c3cc(N4CCNCC4)cc(F)c3c2=O)-c2cccn21 [Compound 646a, 8-Fluoro-4-(4-fluorobenzyl)-6-(piperazin-1-yl)-9H-pyrrolizino[1,2-b]quinoline-9,10(4H)-dione] | 0.05 to 5 | 0.05 to 5 | 0.05 to 5 | 0.05 to 5 | 0.05 to 5 | 0.05 to 5 | –
8 | 0.05 to 5 | N#Cc1ccccc1-c1ccc(Cn2c3c(c(=O)c4cc(C#N)c(N5CCNCC5)cc42)C(=O)n2cccc2-3)cc1 [Compound 644a, 4-((2′-Cyano-[1,1′-biphenyl]-4-yl)methyl)-9,10-dioxo-6-(piperazin-1-yl)-4,10-dihydro-9H-pyrrolizino[1,2-b]quinoline-7-carbonitrile] | 0.05 to 5 | 0.05 to 5 | 0.05 to 5 | 0.05 to 5 | 0.05 to 5 | 0.05 to 5 | –
9 | 0.05 to 5 | N#Cc1ccc(Cn2c3c(c(=O)c4cc(C#N)c(N5CCNCC5)cc42)C(=O)n2cccc2-3)cc1 [Compound 641a, 4-(4-Cyanobenzyl)-9,10-dioxo-6-(piperazin-1-yl)-4,10-dihydro-9H-pyrrolizino[1,2-b]quinoline-7-carbonitrile] | 0.05 to 5 | 0.05 to 5 | 0.05 to 5 | 0.05 to 5 | 0.05 to 5 | 0.05 to 5 | –
10 | 0.05 to 5 | O=C1c2c(n(Cc3ccc(F)cc3)c3cc(N4CCNCC4)c(F)cc3c2=O)-c2cccn21 [Compound 634a, 7-Fluoro-4-(4-fluorobenzyl)-6-(piperazin-1-yl)-9H-pyrrolizino[1,2-b]quinoline-9,10(4H)-dione] | 0.05 to 5 | 0.05 to 5 | 0.05 to 5 | 0.05 to 5 | 0.05 to 5 | 0.05 to 5 | –
11 | 0.05 to 5 | CC(C)CCn1c2c(c(=O)c3cc(F)c(N4CCNCC4)cc31)C(=O)n1cccc1-2 [Compound 347a, 7-Fluoro-4-isopentyl-6-(piperazin-1-yl)-9H-pyrrolizino[1,2-b]quinoline-9,10(4H)-dione] | 0.05 to 5 | 0.05 to 5 | 5 to 20 | 0.05 to 5 | 0.05 to 5 | 0.05 to 5 | –
12 | 5 to 20 | O=C1c2c(n(Cc3ccc(-c4ccccc4)cc3)c3cc(N4CCNCC4)c(F)cc3c2=O)-c2cccn21 [Compound 637a, 4-([1,1′-Biphenyl]-4-ylmethyl)-7-fluoro-6-(piperazin-1-yl)-9H-pyrrolizino[1,2-b]quinoline-9,10(4H)-dione] | 0.05 to 5 | 0.05 to 5 | 0.05 to 5 | 0.05 to 5 | < 0.05 | 0.05 to 5 | –
13 | – | N#Cc1ccc2nc3c(c(OCc4ccc(-c5ccccc5C#N)cc4)c2c1)C(=O)n1cccc1-3 [Compound 629b, 9-((2′-cyano-[1,1′-biphenyl]-4-yl)methoxy)-10-oxo-10H-pyrrolizino[,2-b]quinoline-7-carbonitrile] | – | – | – | – | – | – | IC50 [4, 14]: 0.05 to 5 mM; IC50 (BHK-21 cells; [15]): 0.05 to 5 mM
14 | – | O=C1c2c(n(Cc3cc(C(F)(F)F)cc(C(F)(F)F)c3)c3cc(N4CCNCC4)c(F)cc3c2=O)-c2cccn21 [Compound 639a, 4-(3,5-Bis(trifluoromethyl)benzyl)-7-fluoro-6-(piperazin-1-yl)-9H-pyrrolizino[,2-b]quinoline-9,10(4H)-dione] | – | – | – | – | – | – | IC50 [4, 14]: < 0.05 mM
15 | – | O=C(Cn1c2c(c(=O)c3ccccc31)C(=O)n1cccc1-2)c1ccc(C(F)(F)F)cc1 [Compound 91a, 4-(2-Oxo-2-(4-(trifluoromethyl)phenyl)ethyl)-9H-pyrrolizino[1,2-b]quinoline-9,10(4)-dione] | – | – | – | – | – | – | IC50 ([3]; human hepatic stellate cells LX-2, CCK-8, 48 hours): 0.05 to 5 mM; IC50 ([6]; human fibrosarcoma cells HT-1080, CCK-8, 48 hours): 5 to 20 mM
16 | – | Cc1cc2n(c1)C(=O)c1c-2nc2ccccc2c1O [Compound 801b, 9-hydroxy-2-methyl-0H-pyrrolizino[1,2-b]quinolin-10-one] | – | – | – | – | – | – | IC50 (BHK-21 cells; 48 h, CCK-8): 0.05 to 5 mM
17 | – | O=C1c2c(nc3cc(N4CCNCC4)ccc3c2OCc2ccc(F)cc2F)-c2cccn21 [Compound 630b, 9-((2,4-difluorobenzyl)oxy)-6-(piperazin-1-yl)-10H-pyrrolizino[1,2-b]quinolin-10-one] | – | – | – | – | – | – | IC50 (BHK-21 cells; [15]): 0.05 to 5 mM; IC50 [5, 16]: 5 to 20 mM
18 | – | O=C1c2c(n(Cc3ccc(F)cc3F)c3cc(N4CCNCC4)ccc3c2=O)-c2cccn21 [Compound 630a, 4-(2,4-Difluorobenzyl)-6-(piperazin-1-yl)-9H-pyrrolizino[1,2-b]quinoline-9,10(4H)-dione] | – | – | – | – | – | – | IC50 (BHK-21 cells; [15]): < 0.05 mM; IC50 [5, 16]: < 0.05 mM

Row | SMILES | IC50 [6, 13] [mM] | IC50 [1, 7] [mM] | IC50 [2, 8] [mM] | IC50 [3, 9] [mM] | IC50 [4, 10] [mM] | IC50 (BHK-21 cells; [11]) [mM] | IC50 [5, 12] [mM] | other results
19 | O=C1c2c(nc3cc(N4CCNCC4)c(F)cc3c2O)-c2cccn21 [Compound 346b, 7-fluoro-9-hydroxy-6-(piperazin-1-yl)-10H-pyrrolizino[1,2-b]quinolin-10-one] | 0.05 to 5 | 0.05 to 5 | 0.05 to 5 | 0.05 to 5 | 0.05 to 5 | 0.05 to 5 | 0.05 to 5 | –

Source: patent US11040028B2, “Penicinotam derivative, preparation method and use thereof” (OCEAN UNIVERSITY OF CHINA, priority 2017, dated 2021)
